In paper PMC8456950, “Structure‐Guided Design of G‐Protein‐Coupled Receptor Polypharmacology” (Angewandte Chemie (International Ed. in English), 2021):

Assays:
Human D2R [1] = biological target: T1, Human D2R (Homo sapiens, UniProt P14416); assay: D2R functional cAMP (HTRF) assay in CHO-D2 #S20 cells; format: cell-based; conditions: for EC50: cAMP HTRF, CHO-D2 cells, forskolin 10 µM, mean±SEM n=3; for Emax: relative to the maximal effect of dopamine
T1 construct: expressed in transfected cells; host or cells: CHO-D2R #S20 cell line (membranes)
Method: KB=I C50/(1+([NECA]/EC50 NECA)).
Functional assays for the human D2R were carried out in a CHO-D2 #S20 cell line. 5,000 cells were seed ed in 30 µl of Opti-ME M (Invitrogen 11058) and 500µM IBMX (Sigma 17018) on a 96-well isoplate (PerkinElmer 6005030). The studied compounds wer e then added and incubated for 10 min at 37 °C with gentle stirring (150 rpm). Then, 10 µM […]
forskolin (Sigma 17018) was added and incubated for 5 min at 37 °C with gentle stirring (150 rpm). Reagents (#CISBIO 62AM4PEC) were added and, after incubation for 60 min at rt with gentle stirring (90 rpm) and protected from light, homogeneous time resolved fluorescence (HTRF, λEx: 320 nm; λEm: 620-665 nm) from each well was measured using a Tecan Infinite M1000 Pro. Data were normalized to the maximum effect of dopamine. EC50 and Ema x values were obtained after fitting the d ata to a four -parameter logistic equatio n using Prism V2. 1 (Graph Pad Inc, Chicago, USA) . […]

Human D2R [2] = biological target: T1, Human D2R; assay: D2R competition binding ([3H]-spiperone displacement); conditions: for D2R % displacement at 10 μM: 10 μM compound, mean±SEM of three experiments; for Ki: read-out: D2R binding affinity Ki
Method: Human D2R competition binding experiments w ere carried out in polypropylene 96-well plates. Each well contained 10 µg of membranes from a CHO-D2R #S20 cell line (protein concentration of 3241 µg/ml), 0.4 nM [3H]-spiperone (80. 2 Ci/mmol, 1 mCi/ml, Perkin […]
The reaction mixture (250 µl/well) was incubated at 25°C for 120 min , after which 200 µL was transferred to a GF/C 96 -well plate (Millipore, Madrid, Spain) pretreated with 0. 5% of PEI and treated with binding buffer (50 mM Tris-HCl, 1 mM EDTA, 5 mM MgCl2, 5 mM KCl, 120 mM NaCl, pH=7.4). The […]
samples were filtered and washed four times with 250 µl wash buffer (50 mM Tris-HCl, 0.9% NaCl, pH=7.4) before measuring in a microplate beta scintillation counter (Microbeta Trilux, PerkinElmer, Madrid, Spain). Three independent exp eriments were carried out to calculate Ki values (n=3). […]

Human A2AAR [3] = biological target: T2, Human A2AAR (Homo sapiens, UniProt P29274); assay: A2AAR competition binding ([3H]-ZM241385 displacement); design: expressed in transfected cells; host or cells: HeLa-A2AAR cell line (membranes); conditions: for A2AAR % displacement at 10 μM: 10 μM compound, mean±SEM of three experiments; for Ki: radioligand displacement, mean±SEM of three experiments in duplicate, read-out: A2AAR binding affinity Ki
Method: Binding assays. Human A2AAR competition binding experiments were carried out in multiscreen GF/C 96-well plates (Millipore, Madrid, Spain) pretreated with binding buffer (50 mM Tris-HCl, 1 mM EDTA, 10 mM MgCl2, 2 U/ml adenosine deaminase, pH=7.4).
Each well contained 5 µg of membranes from a He l a-A2AAR cell line (protein concentration […]
compound studied. Non-specific binding was determined in the presence of 50 µM NE C A (Sigma E2387). The reaction mixture (200 µl/well) was incubated at 25 °C for 30 min, after which it was filtered and washed four times with 250 µl wash buffer (50 mM Tris -HCl, 1 mM EDTA, 10 mM MgCl 2, pH=7. 4) before measuring in a microplate beta scintillation counter (Microbeta Trilux, PerkinElmer, Madrid, Spain). Three independent experiments were carried out to calculate K i values (n=3). […]

Human A1AR = biological target: T3, Human A1AR (Homo sapiens, UniProt P30542); assay: A1AR competition binding ([3H]-DPCPX); conditions: 10 µM compound, n=2
T3 construct: expressed in transfected cells; host or cells: CHO-A1AR cell line (membranes)
T3 sequence (P30542 1-326): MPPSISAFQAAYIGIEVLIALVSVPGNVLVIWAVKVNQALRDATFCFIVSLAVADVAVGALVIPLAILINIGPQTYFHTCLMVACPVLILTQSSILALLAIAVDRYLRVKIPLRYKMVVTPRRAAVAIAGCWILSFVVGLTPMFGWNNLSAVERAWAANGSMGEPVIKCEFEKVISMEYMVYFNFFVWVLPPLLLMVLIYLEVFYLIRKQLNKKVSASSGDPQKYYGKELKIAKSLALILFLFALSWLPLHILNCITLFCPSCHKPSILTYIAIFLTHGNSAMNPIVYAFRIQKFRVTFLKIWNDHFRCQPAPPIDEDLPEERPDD
Method: Human A1AR competition binding experiments were carried out in multiscreen GF/C 96 -well plates (Millipore, Madrid, Spain) pretreated with assay buffer ( 20 mM Hepes, 100 mM NaCl, 10 mM MgCl2, 2 U/ml adeno sine deamina se, pH=7.4). Each well contained 5 µg of membranes from a CHO-A1AR cell line, 1 nM [3H]-DPCPX (137 Ci/mmol, 1 mCi/Ml, Perkin Elmer NET974001MC), and the compound studied. Non-specific binding was determined in the presence of R-PIA 10 µM (Sigma P4532). The reaction mixture (200 µl/well) was incubated at 25°C for 60 min. The samples were then filtered and washed four times with 250 µl wash buffer (20 mM Hepes, 100 mM NaCl, 10 mM MgCl2, pH=7.4) before measuring in a microplate beta scintillati on counter (Microbeta Trilux, PerkinElmer, Madrid, Spain). Two independent experiments were carried out to calculate K i values (n=2). […]

Human A2AAR [4] = biological target: T2, Human A2AAR; assay: A2AAR functional assay, inhibition of NECA-elicited cAMP production in CHO-A2A cells; format: cell-based; design: expressed in transfected cells; conditions: mean±SEM n=3
Method: Functional assays. For the human A2AAR, functional experiments measuring cAMP production were carried out in CHO-A2A cell line. The day before the assay, the cells were seeded on a 96-well culture plate (Falcon 353072). The cells were washed with wash buffer (Dulbecco’s modified eagle’s medium nutrient mixture F-12 ham (Sigma D8062), 25 mM Hepes; pH=7.4). Wash buffer was then replaced by incubation buffer (Dulbecco’s modified eagle’s medium nutrient mixture F-12 ham (Sigma D8062), 25 mM Hepes, 20 µM Rolipram, pH=7.4). The studied compounds wer e added and incubated at 37 °C for 15 min. After incubation, NECA (Sigma E2387) was added in several concentrations and incubated at 37 °C for 15 min. After incubation, the amount of cAMP was determined using the cAMP Biotrak Enzymeimmunoassay (EIA) System Kit (GE Healthcare RPN225). Data were adjusted to non-linear fitting by using Prism V2.1 (GraphPad Inc, Chicago USA). K B values were calculated from the IC50 values obtained for each compound by using the formula:
KB=I C50/(1+([NECA]/EC50 NECA)). […]

[5] = radioligand displacement, mean±SEM of three experiments in duplicate

T1 sequence (P14416 whole entry): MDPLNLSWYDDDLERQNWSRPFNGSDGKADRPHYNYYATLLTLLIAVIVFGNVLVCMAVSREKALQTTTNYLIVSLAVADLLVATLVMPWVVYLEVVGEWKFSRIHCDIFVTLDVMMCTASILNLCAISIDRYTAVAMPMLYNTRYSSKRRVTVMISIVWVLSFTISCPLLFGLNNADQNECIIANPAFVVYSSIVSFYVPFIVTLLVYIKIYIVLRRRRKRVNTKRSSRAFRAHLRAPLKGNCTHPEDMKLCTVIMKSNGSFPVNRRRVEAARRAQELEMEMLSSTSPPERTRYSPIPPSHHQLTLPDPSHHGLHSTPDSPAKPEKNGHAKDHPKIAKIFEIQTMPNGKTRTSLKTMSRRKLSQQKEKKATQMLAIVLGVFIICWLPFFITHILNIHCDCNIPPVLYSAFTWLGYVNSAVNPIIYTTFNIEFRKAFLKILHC
T2 sequence (P29274 whole entry): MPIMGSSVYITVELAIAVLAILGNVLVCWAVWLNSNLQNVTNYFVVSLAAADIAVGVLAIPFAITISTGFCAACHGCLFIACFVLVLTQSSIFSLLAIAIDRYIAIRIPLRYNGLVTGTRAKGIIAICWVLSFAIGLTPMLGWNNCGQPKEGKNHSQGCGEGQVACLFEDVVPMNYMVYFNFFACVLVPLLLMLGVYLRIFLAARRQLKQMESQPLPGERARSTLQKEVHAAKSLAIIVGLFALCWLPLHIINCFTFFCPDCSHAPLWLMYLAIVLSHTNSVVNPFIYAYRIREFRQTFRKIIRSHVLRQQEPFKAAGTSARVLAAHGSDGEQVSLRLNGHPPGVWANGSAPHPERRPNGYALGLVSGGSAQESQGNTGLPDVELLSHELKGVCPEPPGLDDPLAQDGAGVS

SMILES	EC50 (Human D2R [1]) [nM]	Emax (Human D2R [1]) [%]	Ki (Human D2R [2]; [5]) [nM]	A2AAR % displacement at 10 μM (Human A2AAR [3])	Ki (Human A2AAR [3]) [nM]	other results
CN(CCCCNc1nc(-c2ccccc2)nc2[nH]ccc12)C1Cc2ccccc2C1 [Compound 3]			290 ± 30	significant radioligand displacement	5600 ± 900	D2R % displacement at 10 μM (Human D2R [2]): significant radioligand displacement
CCOc1cc(C)nc(NCCCCN(C)C2Cc3ccccc3C2)n1 [Compound 4]			330 ± 30	significant radioligand displacement	8400 ± 1300	D2R % displacement at 10 μM (Human D2R [2]): significant radioligand displacement
Cc1nc(NC(=O)CCCCN(C)C2Cc3ccccc3C2)sc1C [Compound 5]			680 ± 50	3 ± 2%		
Cc1ccc(NC(=O)CCCCN(C)C2Cc3ccccc3C2)nc1 [Compound 6]			670 ± 60	7 ± 4%		
CN(C)c1ncnc(NC(=O)CCCCN(C)C2Cc3ccccc3C2)n1 [Compound 7]				4 ± 3%		
CN(CCCCC(=O)Nc1nc2ncccc2[nH]1)C1Cc2ccccc2C1 [Compound 8]			80 ± 10	5 ± 1%		
CN(CCCCNc1ncc(-c2ccccc2)o1)C1Cc2ccccc2C1 [Compound 9]			290 ± 30	9 ± 6%		
CN(CCCCNc1ncc2ccn(C)c2n1)C1Cc2ccccc2C1 [Compound 10]				8 ± 3%		
Cc1cc(C)n2nc(NCCCCN(C)C3Cc4ccccc4C3)nc2n1 [Compound 11]			430 ± 50	4 ± 4%		
CCCCCC(=O)Nc1nc2c(C)cccc2s1 [Compound 12]					8100 ± 3800	D2R % displacement at 10 μM (Human D2R [2]): 1±2%
CNC(=O)CCCCN(C)C1Cc2ccccc2C1 [Compound 13]			5000 ± 1300	5±2%		activity for the A2AAR (in words) (Human A2AAR [3]; binding assay): no activity
Cc1cccc2sc(NC(=O)CCCN(C)C3Cc4ccccc4C3)nc12 [Compound 31]	5200 ± 2600	88 ± 13	630 ± 50		1600 ± 300	
CN(CCCC(=O)Nc1nc2c(Br)cccc2s1)C1Cc2ccccc2C1 [Compound 32]	1200 ± 300	51 ± 4	880 ± 110		670 ± 110	
CN(CCC(=O)Nc1nc2c(Br)cccc2s1)C1Cc2ccccc2C1 [Compound 33]	5000 ± 2800	81 ± 6	2200 ± 300		1100 ± 200	
COc1ccc(OC)c2sc(NC(=O)CCN(C)C3Cc4ccccc4C3)nc12 [Compound 37]	31000 ± 12000	103 ± 3	1300 ± 200		300 ± 50	
CCN(CCC(=O)Nc1nc2c(OC)ccc(C)c2s1)C1Cc2ccccc2C1 [Compound 39]	28000 ± 9000	107 ± 6	2000 ± 300		1300 ± 200	
CCN(CCC(=O)Nc1nc2c(OC)ccc(OC)c2s1)C1Cc2ccccc2C1 [Compound 40]	8900 ± 2700	105 ± 5	1900 ± 300		720 ± 70	

The next lines start with results.

EC50 (Human D2R [1]) [nM]	Emax (Human D2R [1]) [%]	Ki (Human D2R [2]; [5]) [nM]	A2AAR % displacement at 10 μM (Human A2AAR [3])	Ki (Human A2AAR [3]) [nM]	SMILES	other results
9700 ± 3800	93 ± 12	900 ± 80	significant radioligand displacement	1200 ± 100	Cc1cccc2sc(NC(=O)CCCCN(C)C3Cc4ccccc4C3)nc12 [Compound 2]	D2R % displacement at 10 μM (Human D2R [2]): significant radioligand displacement; D2R binding affinity Ki (Human D2R [2]; [5]): submicromolar
26000 ± 14000	89 ± 18	390 ± 30		370 ± 50	COc1cccc2sc(NC(=O)CCCCN(C)C3Cc4ccccc4C3)nc12 [Compound 18]	A1AR % displacement at 10 µM (Human A1AR): 18 ± 3%
23000 ± 9000	82 ± 22	510 ± 50		420 ± 40	CN(CCCCC(=O)Nc1nc2c(Cl)cccc2s1)C1Cc2ccccc2C1 [Compound 19]	
1500 ± 20	62 ± 9	340 ± 30		190 ± 30	CN(CCCCC(=O)Nc1nc2c(Br)cccc2s1)C1Cc2ccccc2C1 [Compound 20]	Kb (Human A2AAR [4]): 320 ± 30 nM; improvement of A2AAR affinity over compound 2 (Human A2AAR [3]; relative to 2): > 6 fold
		330 ± 20		630 ± 80	CCN(CCCCC(=O)Nc1nc2c(OC)cccc2s1)C1Cc2ccccc2C1 [Compound 21]	
		200 ± 20		2900 ± 600	CCCN(CCCCC(=O)Nc1nc2c(F)cccc2s1)C1Cc2ccccc2C1 [Compound 23]	
		820 ± 180		11000 ± 3000	CCCN(CCCCC(=O)Nc1nc2c(CC)cccc2s1)C1Cc2ccccc2C1 [Compound 24]	
750 ± 70	81 ± 5	340		990 ± 240	CCCN(CCCCC(=O)Nc1nc2c(C)cccc2s1)C1Cc2ccccc2C1 [Compound 25]	
1200 ± 200	104 ± 6	900 ± 100		470 ± 110	CCCN(CCCCC(=O)Nc1nc2c(OC)ccc(Cl)c2s1)C1Cc2ccccc2C1 [Compound 28]	
980 ± 10	105 ± 5	670 ± 70		460 ± 40	CCCN(CCCCC(=O)Nc1nc2c(OC)ccc(C)c2s1)C1Cc2ccccc2C1 [Compound 29]	Kb (Human A2AAR [4]): 1900 ± 700 nM
